From BindingDB's records for doi:10.1016/S0960-894X(97)00285-0 (1997) come the findings set out here.

This test deals with Prostate-specific antigen (Homo sapiens) (UniProt P07288). Kind of test: Concentration required for inhibition of 50% of the cleavage of para-nitroanilide from MeO-Suc-Arg-Pro-Tyr-pNA.HCl by Prostate specific antigen PSA.

Broadly, the IC50 is the point on the concentration scale where inhibition reaches its midpoint.

Where a name gives a salt, the structure may show the parent alone. Where only a bound is given, the exact number is not on record here.

Sequence of Prostate-specific antigen (Homo sapiens) (P07288 whole entry, looked up): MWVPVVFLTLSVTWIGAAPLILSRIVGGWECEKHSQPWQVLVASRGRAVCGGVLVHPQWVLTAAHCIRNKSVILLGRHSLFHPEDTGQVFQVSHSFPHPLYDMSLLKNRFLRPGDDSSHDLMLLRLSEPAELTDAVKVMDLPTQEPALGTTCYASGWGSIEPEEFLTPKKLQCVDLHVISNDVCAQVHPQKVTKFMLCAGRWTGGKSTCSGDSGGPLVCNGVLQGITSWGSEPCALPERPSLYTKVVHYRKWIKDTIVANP

On to `NCc1ccc(COC(=O)[C@@H]2[C@H](Cc3ccccc3)C(=O)N2C(=O)Cc2cccc(C(=O)O)c2)cc1` [(2S,3S)-3-Benzyl-1-[2-(3-carboxy-phenyl)-acetyl]-4-oxo-azetidine-2-carboxylic acid 4-aminomethyl-benzyl ester; TFA], for which the 50% inhibitory concentration (IC50) was determined as 1340 nM.
In the case of `O=C(O)c1ccc(COC(=O)[C@@H]2[C@H](Cc3ccccc3)C(=O)N2C(=O)Cc2cccc(C(=O)O)c2)cc1` [3-Benzyl-1-[2-(3-carboxy-phenyl)-acetyl]-4-oxo-azetidine-2-carboxylic acid 4-carboxy-benzyl ester] it was more than 30000 nM.
